Tested on: B16-F10/OVA cells
Assay: Lung metastasis after intranasal melanoma vaccination, pathological observation of lung
Type: in vivo
Conditions: C57BL/6 mice inoculated with B16-F10/OVA cells, intranasal 100 μg/dose once a week for 3 weeks, one week after final vaccination
Method: 6-week old female C57BL/6 mice were intravascularly inoculated with B16-F10/OVA cells (melanoma cells expressing OVA epitopes, 5×10^5 cells/mouse). One week later, mice were divided into 4 groups (n=6 per group): vaccinated with PBS, ovalbumin (OVA), OVA adjuvanted with 0.1% PELC and OVA adjuvanted with nanoPELC. The mice were intranasally vaccinated with PBS or OVA formulation (100 μg/dose) once a week for 3 weeks. One week after the final vaccination, some of the mice were sacrificed, and the lung was isolated for pathological observation.

ovalbumin
melanoma infection area in the lungs (lung metastasis): not as serious as the PBS group, but it still had a certain area

— patent US11160862B2, “Nanoemulsion adjuvant for nasal mucosa and preparation method thereof” (NATIONAL HEALTH RESEARCH INSTITUTES, priority 2017, dated 2021)
